Measurements as given in patent US20240279191A1, “SMALL MOLECULE INHIBITORS OF TEAD-YAP” (The General Hospital Corporation, priority 2021, published 2024).
Read-outs that look alike come from different tables or passages of the source. One block for each compound: values may come before it.

Assays:
[1] = in vitro; conditions: human
[2] = physchem; conditions: pH 7.4
[3] = in vitro; conditions: mouse
[4] = Metabolic stability CLint, human (Tables H1, H2)
[5] = Metabolic stability CLint, mouse (Tables H1, H2)
[6] = logD 7.4; conditions: pH 7.4
[7] = system: KNS62; assay: KNS62 growth inhibition (SAR tables); assay type: cell-based
[8] = system: TEAD; assay: WB primary assay (SAR tables F1, F3A); assay type: biochemical
[9] = system: H226; assay: H226 growth inhibition (SAR tables); assay type: cell-based; conditions: for GI50: Homo sapiens, NCI-H226
[10] = Aqueous solubility (Aq Sol); assay type: physicochemical
[11] = Metabolic stability MLM; conditions: for Met stab MLM, 15 min / Met stab MLM, 60 min: % parent remained per Table G2
[12] = Pharmacokinetics / oral bioavailability in male CD-1 mice; assay type: in vivo; conditions: for AUC(0-inf): Table F2A; for half-life: read-out: t1/2, β (converted)
Source text: Example G. Oral Bioavailability of MGH-CP-715 in Male CD-1Mice

[13] = Metabolic stability in mouse hepatic microsomes (Scripps Florida DMPK Core); assay type: in vitro ADME; conditions: for half-life / microsomal CLint: mouse, liver microsomes; for half-life: 1 mg/mL hepatic microsomes; for microsomal CLint: hepatic microsomes, read-out: Intrinsic Clearance, Mouse (Clint); for metabolic stability (in words): Tables E1 and E2, human and mouse microsomes
[14] = target: TEAD2 (Homo sapiens, UniProt Q15562); assay: Inhibition of TEAD2 auto-palmitoylation in vitro; conditions: FIG. 1; 0.05 and 0.5 μM for 30 mins
Chain of TEAD2 (Q15562 whole entry): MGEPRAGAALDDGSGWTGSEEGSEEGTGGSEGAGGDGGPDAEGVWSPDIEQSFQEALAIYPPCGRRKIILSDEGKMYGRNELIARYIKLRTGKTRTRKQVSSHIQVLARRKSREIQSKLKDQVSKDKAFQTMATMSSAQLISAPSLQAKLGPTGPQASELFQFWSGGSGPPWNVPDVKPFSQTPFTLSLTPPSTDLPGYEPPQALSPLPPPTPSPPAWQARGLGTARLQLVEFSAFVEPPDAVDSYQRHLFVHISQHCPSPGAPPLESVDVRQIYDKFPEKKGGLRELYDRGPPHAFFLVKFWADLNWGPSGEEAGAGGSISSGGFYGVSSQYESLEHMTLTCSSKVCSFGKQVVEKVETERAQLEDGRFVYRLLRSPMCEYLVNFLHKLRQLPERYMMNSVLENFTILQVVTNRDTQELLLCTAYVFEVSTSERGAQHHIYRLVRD

[15] = system: H226 cells; assay: Cell proliferation assay (MTT), H226; conditions: 6 days, FIG. 8C
[16] = Metabolic stability in human hepatic microsomes (Scripps Florida DMPK Core); assay type: in vitro ADME; conditions: liver microsomes; for half-life: 1 mg/mL hepatic microsomes; for microsomal CLint: hepatic microsomes, read-out: Intrinsic Clearance, Human (Clint)
[17] = male, CD-1, mouse, in vivo, 1 mg/Kg IV
[18] = male, CD-1, mouse, in vivo, 10 mg/Kg PO

SMILES: NC(=O)c1cncc(OC(=O)N2CCC(CCc3cccc(C(=O)N4CCCC4)c3)CC2)c1
CLint scaled [1]: 86 mL/min/kg
logD [2]: 2.6
CLint scaled [3]: 90 mL/min/kg

CLint scaled [4]: 54 mL/min/kg
CLint scaled [5]: 87 mL/min/kg
logD [6]: 2.59
SMILES: O=C(NCCc1cccc(F)c1)C1CCN(C(=O)Oc2ccccc2)CC1

CLint human [4]: no depletion (stable)
CLint scaled [5]: 47 mL/min/kg
logD [6]: 2.16
SMILES: O=C(Nc1ccccc1)C1CCN(C(=O)Oc2cccnc2)CC1

GI50 [9]: 1970 nM
Aq Sol [10]: 2 µM
Met stab MLM, 15 min ([11]; 15 min): 26%
Met stab MLM, 60 min ([11]; 60 min): < 5%
SMILES: C[C@@H]1CN(C(=O)Nc2ccccc2)[C@@H](C)CN1C(=O)c1cccc(OCCC2CCCCC2)c1 [MGH-CP-709]
KNS62: value at 1 μM [7]: 28
KNS62: value at 10 μM [7]: 46
WB: % inh. @ 1 μM [8]: 45%
WB: % inh. @ 10 μM [8]: 77%

GI50 [9]: 1040 nM
Aq Sol [10]: <2 µM
Met stab MLM, 15 min ([11]; 15 min): 41%
Met stab MLM, 60 min ([11]; 60 min): < 5%
SMILES: CC1CN(C(=O)Nc2ccccc2)CCN1C(=O)c1cccc(OCCC2CCCCC2)c1 (stereo not drawn) [MGH-CP-710]
KNS62: value at 1 μM [7]: 35
KNS62: value at 10 μM [7]: 51
WB: % inh. @ 1 μM [8]: 54%
WB: % inh. @ 10 μM [8]: 81%

GI50 [9]: 2640 nM
Aq Sol [10]: <2 µM
Met stab MLM, 15 min ([11]; 15 min): 29%
Met stab MLM, 60 min ([11]; 60 min): < 5%
SMILES: O=C(Oc1ccccc1)N1CCN(C(=O)c2cccc(OCCC3CCCCC3)c2)CC1 [MGH-CP-714]
KNS62: value at 1 μM [7]: 10
KNS62: value at 10 μM [7]: 48
WB: % inh. @ 1 μM [8]: 16%
WB: % inh. @ 10 μM [8]: 94%

Aq Sol [10]: <2 µM
F (oral bioavailability) ([12]; 10 mg/Kg PO versus 1 mg/Kg IV): ~5.7%
bioavailability ([12]; male, CD-1, mouse, in vivo, oral, 10 mg/Kg, 10 mg/Kg PO versus 1 mg/Kg IV, read-out: F (oral bioavailability)): ~5%
AUC(0-t) [12, 17]: 663 ng·h/mL
MRT [12, 17]: 88.2 min
clearance [12, 17]: 22.6 mL/min/kg
AUC(0-inf) [12, 17]: 736 ng·h/mL
Cmax ([12]; male, CD-1, mouse, in vivo, 1 mg/Kg IV, read-out: C0/Cmax (C0)): 834 ng/mL
Vd ([12]; male, CD-1, mouse, in vivo, 1 mg/Kg IV, read-out: VSS): 3.61 L/kg
half-life [12, 17]: 223 min
AUC(0-t) [12, 18]: 394 ng·h/mL
MRT [12, 18]: 157 min
Tmax [12, 18]: 15 min
AUC(0-inf) [12, 18]: 422 ng·h/mL
Cmax ([12]; male, CD-1, mouse, in vivo, 10 mg/Kg PO, read-out: C0/Cmax (Cmax)): 108 ng/mL
half-life [12, 18]: 112 min
clearance (in words) ([12]; mouse, in vivo): low
volume of distribution (in words) ([12]; mouse, in vivo): high
% Parent remained MLM, 15 min ([11]; 15 min, Table G2): 66%
Met stab MLM, 15 min ([11]; 15 min): 66%
% Parent remained MLM, 60 min ([11]; 60 min, Table G2): 15%
Met stab MLM, 60 min ([11]; 60 min): 15%
SMILES: O=C(Nc1ccccc1)N1CCN(Cc2cccc(OCCC3CCCCC3)c2)CC1 [MGH-CP-715]
KNS62: value at 1 μM [7]: 4
KNS62: value at 10 μM [7]: 57
WB: % inh. @ 1 μM [8]: 35%
WB: % inh. @ 10 μM [8]: 95%
H226: value at 1 μM ([9]; 1 μM): 16
H226: value at 10 μM ([9]; 10 μM): 69

GI50 [9]: 236 nM
MLM stability (in words) [11]: not improved
Met stab MLM, 15 min ([11]; 15 min): 40%
Met stab MLM, 60 min ([11]; 60 min): < 5%
SMILES: O=C(Nc1ccccc1)N1CCN(C(=O)c2ccnc(OCCC3CCCCC3)c2)CC1 [MGH-CP-716]
KNS62: value at 1 μM [7]: 54
KNS62: value at 10 μM [7]: 60
WB: % inh. @ 1 μM [8]: 59%
WB: % inh. @ 10 μM [8]: 96%
activity in cellular assays (in words) [9]: active

MLM stability (in words) [11]: poor
Met stab MLM, 15 min ([11]; 15 min): 6%
Met stab MLM, 60 min ([11]; 60 min): < 5%
SMILES: O=C(Nc1ccccc1)N1C[C@@H]2C[C@H]1CN2C(=O)c1cccc(OCCC2CCCCC2)c1 [MGH-CP-717]
activity in primary assay (in words) [8]: inactive
WB: % inh. @ 1 μM [8]: −2%
WB: % inh. @ 10 μM [8]: 22%

SMILES: O=C(Oc1ccccc1)N1CCN(Cc2cccc(OCCC3CCCCC3)c2)CC1 [MGH-CP-718]
activity in primary assay (in words) [8]: inactive
WB: % inh. @ 1 μM [8]: −4%
WB: % inh. @ 10 μM [8]: 11%
Met stab MLM, 15 min ([11]; 15 min): 59%
Met stab MLM, 60 min ([11]; 60 min): 13%
MLM stability (in words) ([11]; mouse, microsomes): moderately stable

CLint scaled [4]: 109 mL/min/kg
CLint scaled [5]: 156 mL/min/kg
logD [6]: 2.38
SMILES: O=C(Nc1ncccn1)N1CCN(C(=O)c2cccc(OCCC3CCCCC3)c2)CC1 [TM23]

half-life [13]: 11.2 min
microsomal CLint [13]: 62 µL/min/mg
inhibition of TEAD2 auto-palmitoylation (in words) [14]: significantly decrease the activities
SMILES: O=C(Nc1ccccc1)N1CCN(C(=O)c2cccc(OCCC3CCOCC3)c2)CC1 [TM45, N-phenyl-4-(3-(2-(tetrahydro-2H-pyran-4-yl)ethoxy)benzoyl)piperazine-1-carboxamide]
H226 anti-proliferative potency relative to TM2 (in words) [15]: less potent than TM2

metabolic stability (in words) [13]: improved metabolic stability
half-life [13]: 16.7 min
microsomal CLint [13]: 41 µL/min/mg
half-life [16]: 11.1 min
microsomal CLint [16]: 62 µL/min/mg
SMILES: Nc1cccc(NC(=O)N2CCN(C(=O)c3cccc(OCCC4CCCCC4)c3)CC2)c1 [TM93]

half-life [13]: 1.7 min
microsomal CLint [13]: 415 µL/min/mg
SMILES: O=C(Nc1ccccc1)N1CCN(C2(c3cccc(OCCc4ccccc4)c3)COC2)CC1 [TM97]

metabolic stability (in words) [13]: improved metabolic stability
half-life [13]: 9.6 min
microsomal CLint [13]: 72 µL/min/mg
half-life [16]: 5.8 min
microsomal CLint [16]: 120 µL/min/mg
SMILES: O=C(Nc1ccccc1)N1CCN([S+]([O-])c2cccc(OCCc3ccccc3)c2)CC1 (stereo not drawn) [TM100]

SMILES: Nc1ccc(NC(=O)N2CCN(C(=O)c3cccc(OCCC4CCCCC4)c3)CC2)cc1 [TM112, N-(4-aminophenyl)-4-(3-(2-cyclohexylethoxy)benzoyl)piperazine-1-carboxamide]
H226 anti-proliferative potency relative to TM2 (in words) [15]: less potent than TM2
